Measurements reported in patent US20230265157A1, “MHC MULTIMER EXPRESSION CONSTRUCTS AND USES THEREOF” (priority 2020, published 2023).

Tested on: WT-1-specific T cells
Assay: Specific cell staining / titration on WT-1-specific T cells
Assay type: cell-based
Details: untreated, digested and WT-1-exchanged tetramers at 1 nM and 20 nM
Source text: The amino acid sequence of the Y84A HLA alpha chain is shown in SEQ ID NO: 321. This mutation is known in the art to stabilize binding of the tethered peptide by reducing steric conflict with the peptide linker.

Q: For Y84A variant of the A*02:01 tetramer, which “staining of NLV- and WT-1-specific CD8+ T cells” value is on record?
A: converting NLV reactivity to WT-1 reactivity
